Earlier results as cited in patent US11260023B2, “Topical compositions containing rofecoxib and methods of making and using the same” (BRIORI BIOTECH, LLC, priority 2020, dated 2022).

Key:
[1] = of the solvent; cited from earlier work
[2] = after 24 hours after 25 hours; cited from earlier work

For `CCOCCOCCO` [Diethylene Glycol Monoethyl Ether, diethylene glycol monoethyl ether], the logP [1] is given as −0.5, the “Δd (dispersion)” value [1] is given as 16.2 MPa^1/2 and the “Δh (hydrogen bonding)” value [1] is given as 14.3 MPa^1/2. The “Δp (polar)” value [1] was 9.2 MPa^1/2.
For `CC(O)CC(C)(C)O` (centres unmarked) [2-Methyl-pentane-2,4-diol, 2-methylpentane-2,4-diol], the logP [1] is listed as 0.3, the “Δd (dispersion)” value [1] is listed as 16.4 MPa^1/2 and the “Δh (hydrogen bonding)” value [1] is listed as 20.6 MPa^1/2. The “Δp (polar)” value [1] was 8 MPa^1/2.
In the case of `CO[C@H]1CO[C@H]2[C@@H]1OC[C@H]2OC` [Dimethyl Isosorbide, isosorbide dimethyl ether], the logP [1] is given as −0.6, the “Δd (dispersion)” value [1] is given as 17.6 MPa^1/2 and the “Δh (hydrogen bonding)” value [1] is given as 7.5 MPa^1/2. For the same compound, the “Δp (polar)” value [1] was 7.1 MPa^1/2.
For `C[S+](C)[O-]` [Dimethyl Sulfoxide, dimethyl sulfoxide], the logP [1] is listed as −0.6, the “Δd (dispersion)” value [1] is listed as 18.4 MPa^1/2 and the “Δh (hydrogen bonding)” value [1] is listed as 10.2 MPa^1/2. For the same compound, the “Δp (polar)” value [1] was 16.4 MPa^1/2.
For `CC(=O)OCC(C)OC(C)=O` (centres unmarked) [Propylene Glycol Diacetate, propylene glycol diacetate], the logP [1] is listed as 0.7.
In the case of `CC1COC(=O)O1` (centres unmarked) [Propylene Carbonate, propylene carbonate], the logP [1] is listed as −0.4, the “Δd (dispersion)” value [1] is listed as 20 MPa^1/2 and the “Δh (hydrogen bonding)” value [1] is listed as 4.1 MPa^1/2. For the same compound, the “Δp (polar)” value [1] was 18 MPa^1/2.
For `CCOC(C)=O` [Ethyl Acetate, ethyl acetate], the logP [1] is given as 0.76, the “Δd (dispersion)” value [1] is given as 15.8 MPa^1/2 and the “Δh (hydrogen bonding)” value [1] is given as 7.2 MPa^1/2. The “Δp (polar)” value [1] was 5.3 MPa^1/2.
For `OCc1ccccc1` [Benzyl Alcohol, benzyl alcohol], the “Δd (dispersion)” value [1] is listed as 18.4 MPa^1/2, the “Δh (hydrogen bonding)” value [1] is listed as 13.7 MPa^1/2 and the “Δp (polar)” value [1] is listed as 6.3 MPa^1/2.
For `CN1CCCC1=O` [N-Methyl-2-Pyrrolidone, N-methyl-2-pyrrolidone], the logP [1] is listed as 0.5, the “Δd (dispersion)” value [1] is listed as 18 MPa^1/2 and the “Δh (hydrogen bonding)” value [1] is listed as 7.2 MPa^1/2. The “Δp (polar)” value [1] was 12.3 MPa^1/2.
For `CCOC(=O)CCCCCCCCC(=O)OCC` [Diethyl Sebacate, diethyl sebacate], the logP [1] is given as 3.5, the “Δd (dispersion)” value [1] is given as 16 MPa^1/2 and the “Δh (hydrogen bonding)” value [1] is given as 4.7 MPa^1/2. The “Δp (polar)” value [1] was 4 MPa^1/2.
For `CCCCCCCCCCCCCC(=O)OC(C)C` [Isopropyl tetradecanoate, isopropyl tetradecanoate], the “Δd (dispersion)” value [1] is listed as 16.2 MPa^1/2, the “Δh (hydrogen bonding)” value [1] is listed as 3.7 MPa^1/2 and the “Δp (polar)” value [1] is listed as 2.4 MPa^1/2.
For `CC1=CCC(C(C)(C)O)CC1` (stereo not drawn) [alpha-Terpineol 95.0+ %, alpha-terpineol], the logP [1] is listed as 1.8, the “Δd (dispersion)” value [1] is listed as 17.1 MPa^1/2 and the “Δh (hydrogen bonding)” value [1] is listed as 7.6 MPa^1/2. For the same compound, the “Δp (polar)” value [1] was 3.6 MPa^1/2.
In the case of `CC(O)CO` (centres unmarked) [Propylene Glycol, MP, propylene glycol], the logP [1] is given as −0.9, the “Δd (dispersion)” value [1] is given as 16.8 MPa^1/2 and the “Δh (hydrogen bonding)” value [1] is given as 23.3 MPa^1/2. The “Δp (polar)” value [1] was 9.4 MPa^1/2.
In the case of `O=C(O)Cc1ccccc1Nc1c(Cl)cccc1Cl` [diclofenac], the “amount of diclofenac that penetrates into the blood” value [2] is given as 0.067 mg.
For `CC(C)OC(=O)CCCCC(=O)OC(C)C` [Diisopropyl Adipate, diisopropyl adipate], the logP [1] is given as 2.2.
For `CC(C)=O` [Acetone, acetone], the logP [1] is listed as −0.1, the “Δd (dispersion)” value [1] is listed as 15.5 MPa^1/2 and the “Δh (hydrogen bonding)” value [1] is listed as 7 MPa^1/2. The “Δp (polar)” value [1] was 10.4 MPa^1/2.
